Among the data in ChEMBL document CHEMBL1141046, “Design, synthesis and structure-activity relationship of a series of fragment analogues of antistasin (ATS) and ghilantens (GLS)” (Bioorg Med Chem Lett, 2005) are APTT and IC50 values, retold here.

Assay [1] in a line: Anticoagulant activity of compound in respect to APTT in human poor platelet plasma (PPP) at 1156.6 nM concentration was measured by the Amelung coagulometer KC4A apparatus. The format is functional.
A short description of assay [2]: Anticoagulant activity of compound in respect to APTT in human poor platelet plasma (PPP) at 771 nM concentration was measured by the Amelung coagulometer KC4A apparatus. It counts as functional.
A short description of assay [3]: Concentration for doublingAPTT clotting times of human plasma. The format is functional, cell-free.
Assay [4] can be described thus: Anticoagulant activity of compound in respect to APTT in human poor platelet plasma (PPP) at 2266.99 nM concentration was measured by the Amelung coagulometer KC4A apparatus. It counts as functional.
The nature of assay [5]: Anticoagulant activity of compound in respect to APTT in human poor platelet plasma (PPP) at 906.8 nM concentration was measured by the Amelung coagulometer KC4A apparatus. It counts as functional.
Assay [6] can be described thus: Anticoagulant activity of compound in respect to APTT in human poor platelet plasma (PPP) at 2901.75 nM concentration was measured by the Amelung coagulometer KC4A apparatus. It counts as functional.
Assay [7] in a line: Anticoagulant activity of compound in respect to APTT in human poor platelet plasma (PPP) at 1813.59 nM concentration was measured by the Amelung coagulometer KC4A apparatus. The format is functional.
Assay [8] can be described thus: Anticoagulant activity of compound in respect to APTT in human poor platelet plasma (PPP) at 2720.39 nM concentration was measured by the Amelung coagulometer KC4A apparatus. The format is functional.
A short description of assay [9]: Anticoagulant activity of compound in respect to APTT in human poor platelet plasma (PPP) at 2992.43 nM concentration was measured by the Amelung coagulometer KC4A apparatus. The format is functional.
Assay [10] is described as follows: Anticoagulant activity of compound in respect to APTT in human poor platelet plasma (PPP) at 1077.7 nM concentration was measured by the Amelung coagulometer KC4A apparatus. The format is functional.
The nature of assay [11]: Anticoagulant activity of compound in respect to APTT in human poor platelet plasma (PPP) at 646.61 nM concentration was measured by the Amelung coagulometer KC4A apparatus. The format is functional.
Assay [12] can be described thus: Anticoagulant activity of compound in respect to APTT in human poor platelet plasma (PPP) at 211 nM concentration was measured by the Amelung coagulometer KC4A apparatus. The format is functional.
A short description of assay [13]: Anticoagulant activity of compound in respect to APTT in human poor platelet plasma (PPP) at 705.25 nM concentration was measured by the Amelung coagulometer KC4A apparatus. It counts as functional.
Assay [14] in a line: Anticoagulant activity of compound in respect to APTT in human poor platelet plasma (PPP) at 528.94 nM concentration was measured by the Amelung coagulometer KC4A apparatus. It counts as functional.
Assay [15] can be described thus: Anticoagulant activity of compound in respect to APTT in human poor platelet plasma (PPP) at 881.56 nM concentration was measured by the Amelung coagulometer KC4A apparatus. The format is functional.
Assay [16] is described as follows: Anticoagulant activity of compound in respect to APTT in human poor platelet plasma (PPP) at 290 nM concentration was measured by the Amelung coagulometer KC4A apparatus. The format is functional.
The nature of assay [17]: Anticoagulant activity of compound in respect to APTT in human poor platelet plasma (PPP) at 1192 nM concentration was measured by the Amelung coagulometer KC4A apparatus. The format is functional.
Assay [18] in a line: Anticoagulant activity of compound in respect to APTT in human poor platelet plasma (PPP) at 1043.42 nM concentration was measured by the Amelung coagulometer KC4A apparatus. The format is functional.
The nature of assay [19]: Anticoagulant activity of compound in respect to APTT in human poor platelet plasma (PPP) at 1117.95 nM concentration was measured by the Amelung coagulometer KC4A apparatus. It counts as functional.
Assay [20] is described as follows: Anticoagulant activity of compound in respect to APTT in human poor platelet plasma (PPP) at 894 nM concentration was measured by the Amelung coagulometer KC4A apparatus. The format is functional.
A short description of assay [21]: Anticoagulant activity of compound in respect to APTT in human poor platelet plasma (PPP) at 2235.9 nM concentration was measured by the Amelung coagulometer KC4A apparatus. The format is functional.
The nature of assay [22]: Anticoagulant activity of compound in respect to APTT in human poor platelet plasma (PPP) at 1562.12 nM concentration was measured by the Amelung coagulometer KC4A apparatus. It counts as functional.
Assay [23] is described as follows: Anticoagulant activity of compound in respect to APTT in human poor platelet plasma (PPP) at 1338.96 nM concentration was measured by the Amelung coagulometer KC4A apparatus. The format is functional.
Assay [24] can be described thus: Anticoagulant activity of compound in respect to APTT in human poor platelet plasma (PPP) at 1785.28 nM concentration was measured by the Amelung coagulometer KC4A apparatus. The format is functional.
The nature of assay [25]: Anticoagulant activity of compound in respect to APTT in human poor platelet plasma (PPP) at 418.91 nM concentration was measured by the Amelung coagulometer KC4A apparatus. It counts as functional.
A short description of assay [26]: Anticoagulant activity of compound in respect to APTT in human poor platelet plasma (PPP) at a concentration 272.29(nM) of was measured by the Amelung coagulometer KC4A apparatus. The format is functional.
A short description of assay [27]: Anticoagulant activity of compound in respect to APTT in human poor platelet plasma (PPP) at a concentration 523.64(nM) of was measured by the Amelung coagulometer KC4A apparatus. It counts as functional.
Another assay is filed under the species Homo sapiens. Briefly: Anticoagulant activity of compound in respect to APTT in human poor platelet plasma (PPP) at a concentration 41.89(nM) of was measured by the Amelung coagulometer KC4A apparatus. It counts as functional, cell-free.
Assay [28] in a line: Anticoagulant activity of compound in respect to APTT in human poor platelet plasma (PPP) at a concentration 802.24(nM) of was measured by the Amelung coagulometer KC4A apparatus. It counts as functional.

Square brackets hold non-standard residues; d marks the D form. Peptide text beside a SMILES is read from it. Orn = NCCC[C@H](N)C(=O)O

On to `CC(C)C[C@H](NC(=O)[C@H](CCCCN)NC(=O)[C@H](CCCN=C(N)N)NC(=O)[C@H](CCCCN)NC(=O)[C@@H]1CCCN1C(=O)[C@@H](N)CCCN)C(=O)N[C@H](C(=O)N1CCC[C@H]1C(=O)O)C(C)C` (H-[Orn]PKRKLVP-OH) [listing 1 of 2 here], for which the APTT in [1] is listed as 28.5 s; in assay [2], 22.2 s.

The IC50 is the midpoint of a concentration-inhibition curve. `CC(C)C[C@H](NC(=O)[C@H](CCCCN)NC(=O)[C@H](CCCN=C(N)N)NC(=O)[C@H](CCCCN)NC(=O)[C@@H]1CCCN1C(=O)[C@@H](N)CCCN)C(=O)N[C@H](C(=O)N1CCC[C@H]1C(=O)O)C(C)C` (H-[Orn]PKRKLVP-OH) [listing 2 of 2 here] yielded an IC50 in assay [3] of 1160 nM.

`CC(C)C[C@H](NC(=O)[C@H](CCCCN)NC(=O)[C@H](CCCN=C(N)N)NC(=O)[C@H](CCCCN)NC(=O)[C@@H]1CCCN1C(=O)[C@@H](N)CCCN)C(=O)N[C@H](C(=O)N1CCC[C@H]1C(N)=O)C(C)C` (H-[Orn]PKRKLVP-NH2) [listing 1 of 2 here]: in [3], the 50% inhibitory concentration (IC50) was found to be 705 nM.

For the compound H-PKRKLVP-NH2 [listing 1 of 2 here], the APTT in assay [4] is recorded as 18.8 s; in [5], 8.8 s; in assay [6], 29.8 s; in assay [7], 18.6 s; in assay [8], 25.5 s; in [9], 32.4 s.

The compound H-KPKRKLVP-NH2 displayed a concentration for half-maximal inhibition (IC50) in [3] of 647 nM. Moreover, the APTT in assay [10] was determined as 57.9 s; in [11], 28.9 s; in assay [12] it was 8.9 s.

On to `CC(C)C[C@H](NC(=O)[C@H](CCCCN)NC(=O)[C@H](CCCN=C(N)N)NC(=O)[C@H](CCCCN)NC(=O)[C@@H]1CCCN1C(=O)[C@@H](N)CCCN)C(=O)N[C@H](C(=O)N1CCC[C@H]1C(N)=O)C(C)C` (H-[Orn]PKRKLVP-NH2) [listing 2 of 2 here], for which the APTT worked out at 29.3 s in assay [13], 0.5 s in assay [14] and 53.3 s in assay [15].

As to H-KPKRKLVP-OH, the APTT in assay [16] stood at 6.7 s; in [17], 50.9 s; in assay [18], 24.1 s; in assay [19] it was 30 s; in [20], 21.6 s; in [21], 122.8 s. The compound also returned an IC50 in assay [3] of 1120 nM.

The compound H-PKRKLVP-NH2 [listing 2 of 2 here] gave a 50% inhibitory concentration (IC50) in assay [3] of 2900 nM. That is a single-digit micromolar value.

Regarding H-PKRKLVP-OH [listing 1 of 2 here], the results for the APTT in assay [22], in assay [23] and in assay [24] were 31 s, 22.1 s and 47.1 s, respectively.

Turning to H-PKRKLVP-OH [listing 2 of 2 here], the IC50 in assay [3] was found to be 1560 nM.

Consider H-RPKLVP-OH, for which the APTT in [25] is 5.5 s; in [26], 3.8 s; in assay [27], 15.6 s; in the assay listed under Homo sapiens, “No activity”; in assay [28] it was 62.4 s. The IC50 in assay [3] worked out at 802 nM.
